Measured values taken from patent publication US8946167B2, “Pharmaceutical compositions containing plasma protein” (priority 1997, dated 2015).

What was measured:
human gamma globulin = assay: binding of active substance to human gamma globulin (ultrafiltration, HPLC); settings: Example II.4; 2.25% human gamma globulin + 0.1 mg/ml paclitaxel in absolute ethanol 9:1; lyophilised, redissolved; UF
histamine release = assay: hypersensitivity test: plasma histamine level in rats; assay type: in vivo, CRL (WI) BR male rats; settings: around 7.0 mg/kG for paclitaxel i.v., blood after 2, 5 and 10 minutes
Method: Our study was performed on CRL (WI) BR male rats weighing 130-150 g [14]. […] A group for each time point and dose contained 5 animals. The blood samples were collected into heparin containing tubes after 2, 5 and 10 minutes of treatment. The plasma was separated by quick centrifugation. The samples were stored at −70° C.
The histamine content of the sample was C^14-methylated by specific histamine-N-methyl-transferase enzyme. The histamine level was determined in the plasma samples measuring the C^14 radioactivity in the samples.

CC(=O)O[C@H]1C(=O)[C@@]2(C)[C@H]([C@H](OC(=O)c3ccccc3)[C@]3(O)C[C@H](OC(=O)[C@H](O)[C@@H](NC(=O)c4ccccc4)c4ccccc4)C(C)=C1C3(C)C)[C@]1(OC(C)=O)CO[C@@H]1C[C@@H]2O [paclitaxel]
binding of paclitaxel to human gamma globulin (human gamma globulin): 98% | histamine release induction (plasma histamine level) (histamine release): do not show any such effect
